# Results as given in patent EP0486280A2, “Piperidinylcamphorsulfonyl oxytocin antagonists” (MERCK & CO. INC., priority 1990, dated 1992).
# Target: T1, uterine OT receptors (Rattus norvegicus, UniProt P70536)
# T1 construct: from tissue; host or cells: uterus of DES-treated rats, crude membranes
# T1 sequence (P70536 1-388): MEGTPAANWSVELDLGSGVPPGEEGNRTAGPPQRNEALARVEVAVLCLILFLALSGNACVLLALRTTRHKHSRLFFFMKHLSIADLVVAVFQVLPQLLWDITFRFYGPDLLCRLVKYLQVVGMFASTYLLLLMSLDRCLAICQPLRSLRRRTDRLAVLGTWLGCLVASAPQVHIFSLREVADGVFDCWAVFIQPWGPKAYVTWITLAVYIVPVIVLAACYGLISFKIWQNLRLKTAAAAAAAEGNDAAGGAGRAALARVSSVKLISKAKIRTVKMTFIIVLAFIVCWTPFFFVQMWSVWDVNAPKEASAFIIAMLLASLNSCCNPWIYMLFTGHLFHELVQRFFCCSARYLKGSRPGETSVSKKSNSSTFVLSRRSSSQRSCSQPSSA
# Test: saturation binding of [^3H]OT, crude membrane preparation of uteri
# Design: species or system rats
# Details: radioligand Kd from saturation binding assay; uterus
# Experimental: The high affinity binding of [^3H] Oxytocin(OT)([tyrosyl, 3,5-[^3H]OT; 30-60 Ci/mmol; New England Nuclear. Boston, MA) to uterine OT receptors was based on an assay^* using a crude membrane preparation of uteri taken from diethylstilbestrol dipropionate (DES)-treated (0.3 mg/kg, ip; 18-24) rats. Competition studies were conducted at equilibrium (60 minutes; 22°C) using 1 nM[^3H]OT in the following assay buffer: 50 mM Tris-HCI, 5 mM MgCl2, and 0.1% BSA, pH 7.4. Nonspecific binding (10% of the total binding) was determined using 1 mM unlabeled OT and the binding reaction was terminated by filtration through glass fiber filters using a cell harvester (model 7019, Skatron, Inc., Sterling, VA).
# 1985 J. Clin. Endocrinol. Metab. 60:37.
smiles,measurement,value
CC[C@H](C)[C@@H]1NC(=O)[C@H](Cc2ccc(O)cc2)NC(=O)[C@@H](N)CSSC[C@@H](C(=O)N2CCC[C@H]2C(=O)N[C@@H](CC(C)C)C(=O)NCC(N)=O)NC(=O)[C@H](CC(N)=O)NC(=O)[C@H](CCC(N)=O)NC1=O [[^3H]OT],Kd,0.7 nM
